# From US20180318347A1, “METHODS FOR TREATING CANCER” (Agenus Inc., priority 2015, published 2018)
# Entries after “also recorded” stand apart in the source; their conditions may differ. Like-named read-outs stand apart in the source and are kept apart here.
# How the values were obtained:
# [1] = tested on: GBM patients; assay: Adverse events (CTCAE version 4.0) in the same clinical study; assay type: in vivo, human; details: 46 patients
# Description: Baseline evaluation including neurologic assessment, complete blood analysis, and tumor imaging with contrast-enhanced MRI was performed pre-operatively and immediately postoperatively, usually within 48 hours. KPS was graded by the treating provider. Repeat assessment by physical examination and imaging was performed at the completion of initial chemoradiotherapy, just prior to the first vaccine administration. Final eligibility to receive vaccine was determined at this time point. After initiation of vaccine therapy, patients were evaluated every 4 weeks by clinical examination, and every 8 weeks by radiographic imaging with contrast-enhanced MRI. Tumor progression was assessed according to the modified RANO criteria (Table 1). Adverse events were assessed and graded according to the National Cancer Institute Common Terminology Criteria for Adverse Event (CTCAE), version 4.0.
# [2] = cited from earlier work
# [3] = tested on: GBM; details: cited from earlier work; for Median PFS / Median Survival: Rad/TMZ plus Avastin arm
# [4] = tested on: GBM; assay: Published GBM trials used for comparison (Tables 13 and 14, discussion); assay type: in vivo, human; details: Rad/TMZ plus Avastin arm
# [5] = AVAglio, Chinot et al, NEJM 2014
# [6] = RTOG 0825 Gilbert, et al. NEJM 2014
# [7] = RTOG 0825 Trial, Gilbert, NEJM 2013, N = 637
Compound,Any Adverse Event: TWZ-related event [1],Grade 3-4 Event: TWZ-related event [1],concentrations in the central nervous system relative to plasma concentrations ([2]; following oral administration),blood-brain barrier penetration ([2]; in vivo),bioavailability ([2]; taken orally),"Median PFS [3, 5] [months]","Median Survival [3, 5] [months]","Median PFS [3, 6] [months]","Median Survival [3, 6] [months]","Median Survival, Methylated [3, 7] [months]","Median Survival, Unmethylated [3, 7] [months]","Median overall survival, methylated patients ([3]; bevacizumab trials) [months]","Median overall survival, unmethylated patients ([3]; bevacizumab trials) [months]","Benefit of adding bevacizumab to radiation and temozolomide ([3]; newly diagnosed GBM, randomized phase 3 trials vs placebo)","Estimated Post-Progression Survival [4, 5] [months]","Estimated Post-Progression Survival [4, 6] [months]"
Cn1nnc2c(C(N)=O)ncn2c1=O [temozolomide],42 (91.3%) no. of patients (%),21 (45.6%) no. of patients (%),approximately 30%,able to cross the blood-brain barrier,greater than 95%,–,–,–,–,–,–,–,–,–,–,–
bevacizumab [Avastin],–,–,–,–,–,10.6,16.8,10.7,16.1,23.2,14.3,25.0,14.6,no significant benefit; also recorded: no improvement in overall survival compared to placebo,6.2,5.4
